Measurements taken from patent US20240226072A1 (Stichting Het Nederlands Kanker Instituut, priority 2022, published 2024).
Read-outs that look alike come from different tables or passages of the source. Values belong to the molecule of their own block, whether it stands above or below them.

How the values were obtained:
[1] = Preclinical population PK model (NONMEM) of oral cabazitaxel and ritonavir in Cyp3aXAV mice
Procedure: Population PK modeling was performed using nonlinear mixed-effects modeling in NONMEM (version 7.5.0, ICON Development Solutions, Ellicott City, MD, USA) with a gfortran compiler and Perl-speaks-NONMEM (version 5.3.0) (Beal SL SL. NONMEM user guides. Ellicott City, Maryland, USA. 1989; Lindbom et al. Comput Methods Programs Biomed. 2005). All models were fit with first order conditional estimation method with η-ε interaction (FOCE-I). Pirana (version 2.9.9) was used as a modeling interface. R (version 4.0.4) was used for data management, visual model evaluation, and analysis and visualization of simulation data.
Due to its predictive value for human hepatic CYP3A metabolism, the PK data obtained in the Cyp3aXAV mouse model was used in the current study (Damoiseaux et al. Pharmaceuticals. 2022). […] Depending on the study, each experiment was terminated by cardiac puncture at either 2 hours or 24 hours after administration.
In the development of the compartmental PK models, inclusion of model elements, such as the number of compartments, inter-individual variability (IIV), covariate effects, and residual random effects were guided by differences in objective function value (OFV), plausibility of parameter estimates, observation of trends in goodness of fit plots, and differences in estimation precision.
This well-stirred liver model assumes the liver to have a fixed volume and blood flow and hepatic clearance (CL) is calculated as a function of hepatic blood flow (Q1) and intrinsic clearance (CLi) following Eq.1.
In the variability model, it was assumed that IIV is log-normally distributed. With Eq. 5 defining the expression for the individual parameter estimate θi.
Where θpop represents population mean parameter estimate and ηi represents its individual deviation, which is distributed following N (0, ω^2). For both PK models, in was assumed that the residual error has both an additive and proportional component. The additive component of the error model was included only for observations which were designated as <LLOQ. Time points for which no quantity of either drug could be detected were discarded. For determination of the LLOQ a signal-to-noise ratio (S/N) of 10 is applied. Thus, a fixed additive error was set for observations <LLOQ which was set to 1/10th of the LLOQ for the respective compound. Consequently, individual model predictions are related to observations following Eq. 6.
Where Cobs,ij represents the observation for the ith subject and the jth measurement. With Cpred,ij the respective prediction. Both the proportional error ep, and additive error εa,ij were assumed to be distributed following N (0, σ^2). LLOQij was included as a data record, which was set to one for observations that were below the limit of quantification.
Evaluation of candidate models was based on plausibility and precision of parameter estimates, observation of trends in goodness-of-fit plots, η and ε-shrinkage, and decreases in OFV for which a change in OFV of 3.84, corresponding to α=0.05, was considered to be significant for hierarchical models. All models were required to achieve successful minimization. The predictive performance of the model was evaluated by simulating 500 datasets using the candidate models from which the 5th, 50th, and 95th percentiles were calculated, along with their 95% confidence intervals, which were compared with the 5th, 50th, and 95th of the observations using a visual predictive check (VPC). The uncertainty in the final parameter estimates was evaluated using a sampling importance-resampling (SIR) algorithm (Dosne et al. J Pharmacokinet Pharmacodyn. 2017).

[2] = Carboxylesterase pharmacokinetic experiment: oral cabazitaxel 10 mg/kg, 2 h, in wild-type, Ces1cde−/− and Ces1−/− mice; type: in vivo; details: for lower plasma AUC0-2h / reduction of Cmax: oral cabazitaxel 10 mg/kg; for Kp at 2 h / Cmax / Tmax / AUC(0-t): male, FVB, mouse, po, 10 mg/kg; for Cmax / Tmax / AUC(0-t): plasma; for AUC(0-t): read-out: AUC0-120min
Procedure: The experiment was terminated by cardiac puncture at 2 hours. The organ collection and sample pretreatment were as described above.
Differences were considered statistically significant when P<0.05. All data are presented as geometric mean±SD.
This experiment was performed in the absence of ritonavir.

[3] = Cyp3a−/− compared to wild-type mice; earlier study; cited from earlier work
in vivo = assay: in vivo
Procedure: Male wild-type, Oatp1a/1b^−/−, transgenic OATP1B1 and OATP1B3 mice in an Oatp1a/1b^−/− background, Oatp1a/1b/2b1b^−/−, Ces1b^−/− and Ces1cdeb^−/− mice were used.
The Accord (20 mg/mL) formulation contains polysorbate 80, citric acid and 395 mg/mL anhydrous ethanol. […] The stock solution was further diluted 5-fold with water to obtain a 2.5 mg/mL dosing solution for oral administration. The vehicle solution only consisted of polysorbate 80, ethanol and water (1:1:8, v/v/v). All dosing solutions were prepared freshly on the day of the experiment.
The termination time point was at 2 hours and 15 minutes. […] The termination, organ collection and sample pretreatment were as described above.
Non-compartmental analysis was performed to estimate the pharmacokinetic parameters by using the software package PK solutions 2.0.2 (SUMMIT, Research Service). The linear trapezoidal rule without extrapolating to infinity was used to calculate the area under the curve (AUC) of the plasma-concentration time curve for all the compounds. The peak plasma concentration (Cmax) and the time to reach peak plasma concentration (Tmax) were obtained directly from the individual raw data. […] GraphPad Prism 9 (GraphPad Software Inc., La Jolla, CA) was used for the statistical analysis and the preparation of the graphs. […]

[4] = cabazitaxel PK model, allometrically scaled to a 70 kg human
[5] = inter-individual variability, population PK model, Cyp3aXAV mice
[6] = Ces1cde−/− compared to wild-type mice
[7] = Ces1−/− compared to wild-type mice
[8] = Ces1cde−/− mice, oral 10 mg/kg cabazitaxel
[9] = Ces1−/− mice, oral 10 mg/kg cabazitaxel
[10] = wild-type mice, oral 10 mg/kg cabazitaxel
[11] = wild-type mice, oral 10 mg/kg cabazitaxel, 2 h

Ka, 10 mg/kg, First-order absorption rate constant when co-administered with 10 mg/kg ritonavir ([1]; cabazitaxel PK model): 2.62 h⁻¹
Ka, 25 mg/kg, First-order absorption rate constant when co-administered with 25 mg/kg ritonavir ([1]; cabazitaxel PK model): 1.22 h⁻¹
Ka, First-order absorption rate constant ([1]; cabazitaxel PK model, Cyp3aXAV mice): 5.83 h⁻¹
CLint, Uninhibited intrinsic clearance ([1]; cabazitaxel PK model, Cyp3aXAV mice, allometrically scaled to a 70 kg human): 106 L/h
Q2, Inter compartment clearance [1, 4]: 27.7 L/h
VP, Peripheral volume [1, 4]: 613 L
IIV F [1, 5]: 22.7 CV %
IIV Ka [1, 5]: 63.4 CV %
VC, Central volume ([1]; population PK model, Cyp3aXAV mice, allometrically scaled to a 70 kg human): 293 L
lower absolute testis concentration ([2]; Ces1cde−/− compared to wild-type mice, 2 h): 2.3 fold
lower plasma AUC0-2h [2, 6]: 6.7 fold
reduction of Cmax [2, 6]: 5.4 fold
SIC (% of dose), small intestinal content as percentage of dose ([2]; Ces1cde−/− mice, oral 10 mg/kg cabazitaxel, 2 h): 0.16 ± 0.09 % of dose
lower absolute testis concentration ([2]; Ces1−/− compared to wild-type mice, 2 h): 2.6 fold
lower plasma AUC0-2h [2, 7]: 7.2 fold
reduction of Cmax [2, 7]: 6.0 fold
SIC (% of dose), small intestinal content as percentage of dose ([2]; Ces1−/− mice, oral 10 mg/kg cabazitaxel, 2 h): 0.10 ± 0.04 % of dose
Kp at 2 h ([2]; brain, Ces1cde−/− mice, oral 10 mg/kg cabazitaxel, 2 h, read-out: Brain-to-plasma ratio): 0.28 ± 0.06
Kp at 2 h ([2]; brain, Ces1−/− mice, oral 10 mg/kg cabazitaxel, 2 h, read-out: Brain-to-plasma ratio): 0.43 ± 0.06
Kp at 2 h ([2]; brain, wild-type mice, oral 10 mg/kg cabazitaxel, 2 h, read-out: Brain-to-plasma ratio): 0.04 ± 0.003
Kp at 2 h ([2]; liver, Ces1cde−/− mice, oral 10 mg/kg cabazitaxel, 2 h, read-out: Liver-to-plasma ratio): 13.1 ± 4.6
Kp at 2 h ([2]; liver, Ces1−/− mice, oral 10 mg/kg cabazitaxel, 2 h, read-out: Liver-to-plasma ratio): 14.9 ± 4.49
Kp at 2 h ([2]; liver, wild-type mice, oral 10 mg/kg cabazitaxel, 2 h, read-out: Liver-to-plasma ratio): 1.64 ± 0.59
Cmax [2, 8]: 1080 ± 450 nM
Tmax [2, 8]: 25 min
AUC(0-t) [2, 8]: 1.03 ± 0.395 µM·h
Cmax [2, 9]: 969 ± 219 nM
Tmax [2, 9]: 32.5 min
AUC(0-t) [2, 9]: 0.946 ± 0.22 µM·h
Cmax [2, 10]: 5830 ± 1800 nM
Tmax [2, 10]: 25 min
AUC(0-t) [2, 10]: 6.86 ± 1.94 µM·h
CLiver [2, 11]: 2035 ± 460 pmol/g
Cbrain [2, 11]: 49.9 ± 5.96 pmol/g
SIC (% of dose), small intestinal content as percentage of dose [2, 11]: 0.11 ± 0.06 % of dose
Compound: CO[C@H]1C(=O)[C@]2(C)[C@@H](OC)C[C@H]3OC[C@@]3(OC(C)=O)[C@H]2[C@H](OC(=O)c2ccccc2)[C@]2(O)C[C@H](OC(=O)[C@H](O)[C@@H](NC(=O)OC(C)(C)C)c3ccccc3)C(C)=C1C2(C)C [cabazitaxel]
previously observed difference of plasma AUC [3]: approximately 6 fold

Compound: CC(C)c1nc(CN(C)C(=O)N[C@H](C(=O)N[C@@H](Cc2ccccc2)C[C@H](O)[C@H](Cc2ccccc2)NC(=O)OCc2cncs2)C(C)C)cs1 [ritonavir]
Tmax (in vivo; male, FVB, mouse, in vivo, po, 25 mg/kg): 65 min
Cbrain (in vivo; wild-type mice, oral 25 mg/kg ritonavir alone, 2 h 15 min): 123 ± 57.8 pmol/g
